Where “and” joins values, the source holds several entries; their conditions need not be identical. Equal values may be shown once. Calls of active or inactive are those of the source.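 The calls were made as follows: active = IC50 against MMP-2 at or below 100 µM; inactive = the rest.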 Where only a bound is given, the exact number is not on record here.

Usually IC50 stands for the point on the concentration scale where inhibition reaches its midpoint.

Sequence of 72 kDa type IV collagenase (Homo sapiens) (P08253 whole entry, looked up): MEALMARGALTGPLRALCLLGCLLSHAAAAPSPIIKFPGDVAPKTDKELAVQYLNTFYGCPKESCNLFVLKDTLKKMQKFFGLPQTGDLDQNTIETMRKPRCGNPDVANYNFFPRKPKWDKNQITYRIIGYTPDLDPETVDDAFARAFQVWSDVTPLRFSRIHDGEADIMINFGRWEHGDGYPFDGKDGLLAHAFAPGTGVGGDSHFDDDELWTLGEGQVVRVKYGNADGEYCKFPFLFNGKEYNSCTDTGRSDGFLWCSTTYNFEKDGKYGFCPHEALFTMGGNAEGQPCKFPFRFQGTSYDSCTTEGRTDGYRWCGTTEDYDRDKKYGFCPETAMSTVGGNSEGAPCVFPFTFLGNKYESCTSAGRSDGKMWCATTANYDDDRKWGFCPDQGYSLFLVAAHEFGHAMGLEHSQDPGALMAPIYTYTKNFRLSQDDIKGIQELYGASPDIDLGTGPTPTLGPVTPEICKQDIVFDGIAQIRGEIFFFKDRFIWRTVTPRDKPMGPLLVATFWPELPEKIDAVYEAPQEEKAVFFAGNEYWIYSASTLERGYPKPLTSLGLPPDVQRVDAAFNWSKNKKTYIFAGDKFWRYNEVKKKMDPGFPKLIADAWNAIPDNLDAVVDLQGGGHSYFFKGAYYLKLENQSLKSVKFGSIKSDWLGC

The assay concerns the target 72 kDa type IV collagenase (Homo sapiens) (UniProt P08253). The experiment in a line: human MMP-2 protease inhibitors, selectivity check – biochemical, fluorescence, counter-screen for RPN11 inhibitor project, SAR follow-up (AID 686932). The conditions noted are these: recombinant MMP-2, FRET peptide cleavage fluorescence. In general terms: Counterscreens check selectivity or assay interference.
For the compound `O=C(Sc1cccc2cccnc12)c1c(Cl)cccc1Cl`, the IC50 is 8.92 µM. For the compound `CC[C@@H](C)[C@H](NC(=O)c1cnc2c(SSc3cccc4cc(C(=O)N[C@H](C(=O)OC)[C@@H](C)CC)cnc34)cccc2c1)C(=O)OC`, the IC50 was > 99 µM (inactive). As for `CCOc1ccccc1C(=O)Sc1cccc2cccnc12`, the IC50 is 17 µM and > 99 µM (inactive). The figure for `COC(=O)[C@H](CC(C)C)NC(=O)c1cnc2c(SSc3cccc4cc(C(=O)N[C@@H](CC(C)C)C(=O)OC)cnc34)cccc2c1` is > 99 µM (inactive); for `O=C(Sc1cccc2cccnc12)c1cccc2ccccc12` it is 29.3 µM. The figure for `CC(C)C[C@H](NC(=O)c1cnc2c(SSc3cccc4cc(C(=O)N[C@@H](CC(C)C)C(=O)O)cnc34)cccc2c1)C(=O)O` is 9.21 µM.

As to `O=C(Sc1cccc2cccnc12)c1ccc(F)c(F)c1`, the IC50 was > 99 µM (inactive). As for `CC(C)Cc1ccc(C(=O)Sc2cccc3cccnc23)cc1`, the figure is > 99 µM (inactive). As for `O=C(Sc1cccc2cccnc12)c1ccc2c(c1)OCO2`, the figure is > 99 µM (inactive); as for `O=C(Sc1cccc2cccnc12)c1ccccc1I`, 7.06 µM. For `N#Cc1ccc(C(=O)Sc2cccc3cccnc23)cc1`, the concentration for half-maximal inhibition (IC50) is 3.38 µM.

For the compound `COC(=O)[C@H](CO)NC(=O)c1cnc2c(SSc3cccc4cc(C(=O)N[C@@H](CO)C(=O)OC)cnc34)cccc2c1`, the IC50 was > 99 µM (inactive). `O=C(Sc1cccc2cccnc12)c1ccccc1F`: the IC50 is > 99 µM (inactive). As to `COc1ccc(C(=O)Sc2cccc3cccnc23)cc1`, the IC50 is 16.2 µM. Turning to `COC(=O)[C@H](C)N(C)C(=O)c1cnc2c(SSc3cccc4cc(C(=O)N(C)[C@@H](C)C(=O)OC)cnc34)cccc2c1`, the IC50 was > 99 µM (inactive). As to `COC(=O)c1cnc2c(SSc3cccc4cc(C(=O)OC)cnc34)cccc2c1`, the concentration for half-maximal inhibition (IC50) is 24 µM. As for `O=C(Sc1cccc2cccnc12)c1ccccc1Br`, the figure is > 99 µM (inactive); as for `COC(=O)[C@H](C)NC(=O)c1ccnc2c(SSc3cccc4c(C(=O)N[C@@H](C)C(=O)OC)ccnc34)cccc12`, > 99 µM (inactive); as for `N#Cc1cccc(C(=O)Sc2cccc3cccnc23)c1`, > 99 µM (inactive). Turning to `CC(C)(C)OC(=O)CCNC(=O)c1cnc2c(SSc3cccc4cc(C(=O)NCCC(=O)OC(C)(C)C)cnc34)cccc2c1`, the IC50 is > 99 µM (inactive). The figure for `COC(=O)[C@H](C)NC(=O)c1cnc2c(SSc3cccc4cc(C(=O)N[C@@H](C)C(=O)OC)cnc34)cccc2c1` is > 99 µM (inactive); for `COC(=O)[C@@H](NC(=O)c1cnc2c(SSc3cccc4cc(C(=O)N[C@H](C(=O)OC)C(C)C)cnc34)cccc2c1)C(C)C` it is > 99 µM (inactive); for `C[C@@H](C(=O)O)N(C)C(=O)c1cnc2c(SSc3cccc4cc(C(=O)N(C)[C@@H](C)C(=O)O)cnc34)cccc2c1` it is > 99 µM (inactive). As for `O=C(Sc1cccc2cccnc12)c1ccc(F)cc1`, the figure is > 99 µM (inactive); as for `COc1cccc(C(=O)Sc2cccc3cccnc23)c1`, > 99 µM (inactive). As for `Cc1ccc(C(=O)Sc2cccc3cccnc23)cc1`, the figure is > 99 µM (inactive).

As for `COc1ccccc1C(=O)Sc1cccc2cccnc12`, the IC50 is > 99 µM (inactive). Regarding `O=C(Sc1cccc2cccnc12)c1ccc(C(F)(F)F)cc1`, the IC50 was > 99 µM (inactive). As for `COc1ccc(C(=O)Sc2cccc3cccnc23)cc1OC`, the figure is > 99 µM (inactive); as for `Cc1cccc(C(=O)Sc2cccc3cccnc23)c1`, 38.5 µM. With `COC(=O)C[C@H](NC(=O)c1cnc2c(SSc3cccc4cc(C(=O)N[C@@H](CC(=O)OC)C(=O)OC)cnc34)cccc2c1)C(=O)OC`, the IC50 is > 99 µM (inactive). As for `O=C(Sc1cccc2cccnc12)c1cccc(C(F)(F)F)c1`, the figure is > 99 µM (inactive); as for `O=C(Sc1cccc2cccnc12)c1ccccc1`, 21.8 µM; as for `O=C(Sc1cccc2cccnc12)c1ccc([N+](=O)[O-])cc1`, > 99 µM (inactive). As for `CC(C)[C@H](NC(=O)c1cnc2c(SSc3cccc4cc(C(=O)N[C@H](C(=O)O)C(C)C)cnc34)cccc2c1)C(=O)O`, the IC50 is > 99 µM (inactive). As for `COC(=O)[C@@H]1CCCN1C(=O)c1cnc2c(SSc3cccc4cc(C(=O)N5CCC[C@H]5C(=O)OC)cnc34)cccc2c1`, the figure is > 99 µM (inactive). The figure for `O=C(Sc1cccc2cccnc12)c1ccccc1Cl` is > 99 µM (inactive); for `COc1ccc(C(=O)Sc2cccc3cccnc23)cc1F` it is > 99 µM (inactive); for `O=C(Sc1cccc2cccnc12)c1ccccc1[N+](=O)[O-]` it is “inactive”. As to `O=C(Sc1cccc2cccnc12)c1ccc(F)cc1F`, the half-maximal inhibitory concentration (IC50) is 9.07 µM. Consider `CCCc1ccc(C(=O)Sc2cccc3cccnc23)cc1`, for which the 50% inhibitory concentration (IC50) is 7.85 µM. As to `O=C(O)c1cnc2c(SSc3cccc4cc(C(=O)O)cnc34)cccc2c1`, the IC50 was > 99 µM (inactive). Consider `Cc1ccccc1C(=O)Sc1cccc2cccnc12`, for which the IC50 was > 99 µM (inactive). As to `CC[C@@H](C)[C@H](NC(=O)c1cnc2c(SSc3cccc4cc(C(=O)N[C@H](C(=O)O)[C@H](C)CC)cnc34)cccc2c1)C(=O)O`, the half-maximal inhibitory concentration (IC50) is 20.2 µM.

`O=C(Sc1cccc2cccnc12)c1ccccc1OC(F)(F)F`: the IC50 was > 99 µM (inactive). Take `O=C(Sc1cccc2cccnc12)C1CCCCC1`: the IC50 is 20.5 µM. On to `O=C(O)[C@@H]1CCCN1C(=O)c1cnc2c(SSc3cccc4cc(C(=O)N5CCC[C@H]5C(=O)O)cnc34)cccc2c1`, for which the half-inhibitory concentration (IC50) was 16.3 µM. The figure for `O=C(Sc1cccc2cccnc12)c1cccc(Cl)c1` is > 99 µM (inactive).

Source of the values: PubChem BioAssay AID686932 (Sanford-Burnham Center for Chemical Genomics, 2013).
